Counter-ions that a name gives are not always drawn. Calls of active or inactive are those of the source. The calls are words filed in the database; no cut-off is given here.
How the values were obtained:
[1] = Cytotoxicity against human HK-2 cells assessed as cell survival measured after 72 hrs incubation by MTT assay; assay type: toxicity, cell-based
[2] = Cytotoxicity against human KBV cells assessed as cell survival measured after 72 hrs incubation by MTT assay; assay type: functional, cell-based
[3] = molecular target: T1, ATP-dependent translocase ABCB1 (Homo sapiens, UniProt P08183); test: Inhibition of P-gp-mediated rhodamine-123 efflux in human KVB cells assessed as increase in intracellular Rhodamine-123 accumulation at 10 uM incubated for 30 mins by flow cytometry; assay type: cell-based; conditions: kbv, 0.5 h
[4] = Reversal fold, ratio of PTX IC50 to PTX IC50 in presence of test compound for reversal of multi-drug resistance in human KVB cells at 10 uM measured after 72 hrs by MTT assay; assay type: functional, KBV
[5] = Cytotoxicity against HUVEC cells assessed as cell survival measured after 72 hrs incubation by MTT assay; assay type: toxicity, cell-based; conditions: human
[6] = Reversal fold, ratio of 5-fluorouracil IC50 to 5-fluorouracil IC50 in presence of test compound for reversal of multi-drug resistance in human KVB cells at 10 uM measured after 72 hrs by MTT assay; assay type: functional, KBV
[7] = Reversal fold, ratio of cisplatin IC50 to cisplatin IC50 in presence of test compound for reversal of multi-drug resistance in human KVB cells at 25 uM measured after 72 hrs by MTT assay; assay type: functional, KBV
[8] = Reversal fold, ratio of ADR IC50 to ADR IC50 in presence of test compound for reversal of multi-drug resistance in human KVB cells at 5 uM measured after 72 hrs by MTT; assay type: functional, KBV
[9] = Reversal of multi-drug resistance in human KVB cells assessed as increase in PTX-induced cytotoxicity by measuring cell survival at 5 uM measured after 72 hrs incubation in presence of 100 nM paclitaxel by MTT assay relative to control; assay type: functional, KBV
[10] = Reversal fold, ratio of 5-fluorouracil IC50 to 5-fluorouracil IC50 in presence of test compound for reversal of multi-drug resistance in human KVB cells at 5 uM measured after 72 hrs by MTT assay; assay type: functional, KBV
[11] = molecular target: T1, ATP-dependent translocase ABCB1; test: Inhibition of P-gp-mediated Ptx-C efflux in human KVB cells assessed as increase in fluorescence intensity incubated for 3 hrs by confocal microscopic analysis; assay type: cell-based; conditions: kbv, at 2.5 to 10 µM, dose 2.5-10 µM
[12] = tested on: KBV; test: Potentiation of PTX-mediated inhibition of colony formation of human KVB cells assessed as reduction in colonies measured after 48 hrs by crystal violet staining based analysis; assay type: functional, cell-based; conditions: dose […] µM
[13] = molecular target: T2, Broad substrate specificity ATP-binding cassette transporter ABCG2 (Homo sapiens, UniProt Q9UNQ0); test: Thermal stabilization of ABCG2 in human KVB cells by CETSA assay; assay type: cell-based; conditions: kbv
T2 sequence (Q9UNQ0 whole entry): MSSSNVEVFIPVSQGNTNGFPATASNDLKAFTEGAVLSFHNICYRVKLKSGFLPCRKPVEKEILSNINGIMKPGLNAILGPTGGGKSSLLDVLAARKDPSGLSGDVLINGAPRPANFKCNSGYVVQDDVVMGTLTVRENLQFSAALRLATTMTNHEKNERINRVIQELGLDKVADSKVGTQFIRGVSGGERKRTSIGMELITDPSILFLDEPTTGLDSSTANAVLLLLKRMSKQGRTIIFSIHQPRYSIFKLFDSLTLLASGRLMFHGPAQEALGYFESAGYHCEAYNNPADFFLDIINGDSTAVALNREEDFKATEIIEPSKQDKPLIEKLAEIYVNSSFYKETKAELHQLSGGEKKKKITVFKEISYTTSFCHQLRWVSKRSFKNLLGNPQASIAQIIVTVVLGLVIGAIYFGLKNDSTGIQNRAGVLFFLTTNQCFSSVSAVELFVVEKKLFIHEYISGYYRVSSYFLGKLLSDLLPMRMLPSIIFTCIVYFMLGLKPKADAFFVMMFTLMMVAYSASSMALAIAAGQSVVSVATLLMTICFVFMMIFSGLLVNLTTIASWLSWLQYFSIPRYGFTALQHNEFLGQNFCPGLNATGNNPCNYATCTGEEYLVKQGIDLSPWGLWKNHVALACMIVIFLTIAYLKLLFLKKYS

[14] = Reversal fold, ratio of ADR IC50 to ADR IC50 in presence of test compound for reversal of multi-drug resistance in human KVB cells at 10 uM measured after 72 hrs by MTT; assay type: functional, KBV
[15] = molecular target: T1, ATP-dependent translocase ABCB1; test: Inhibition of P-gp-mediated rhodamine-123 efflux in human KVB cells assessed as increase in intracellular Rhodamine-123 accumulation incubated for 30 mins by flow cytometry; assay type: cell-based; conditions: kbv, 0.5 h, at 2.5 to 10 µM, dose 2.5-10 µM
[16] = tested on: KBV; test: Potentiation of PTX-mediated antimigratory activity against human KVB cells assessed as inhibition of cell migration at 2.5 to 10 uM and incubated for 24 hrs in presence of 50 nM by scratch wound healing assay; assay type: functional, cell-based; conditions: dose 2.5-10 µM
[17] = Reversal fold, ratio of cisplatin IC50 to cisplatin IC50 in presence of test compound for reversal of multi-drug resistance in human KVB cells at 5 uM measured after 72 hrs by MTT assay; assay type: functional, KBV
[18] = Reversal of multi-drug resistance in human KVB cells assessed as increase in PTX-induced cytotoxicity by measuring cell survival at 10 uM measured after 72 hrs incubation in presence of 100 nM paclitaxel by MTT assay relative to control; assay type: functional, KBV
[19] = molecular target: Multidrug resistance-associated protein 1 (Homo sapiens, UniProt P33527); test: Thermal stabilization of ABCC1 in human KVB cells by CETSA assay; assay type: cell-based; conditions: kbv
[20] = molecular target: T1, ATP-dependent translocase ABCB1; test: Substrate activity at Pgp in human KVB cells assessed as intracellular accumulation measured after 4 hrs by LC-MS/MS analysis; assay type: cell-based; conditions: kbv
[21] = tested on: KBV; test: Reduction in P-gp protein level in human KVB cells at 10 uM measured upto 96 hrs incubation by Western blot analysis; assay type: functional, cell-based
[22] = tested on: KBV; test: Effect on P-gp sub-cellular localization in human KVB cells at 10 uM measured for 48 hrs incubation by immunofluorescence assay; assay type: functional, cell-based
[23] = Reversal fold, ratio of cisplatin IC50 to cisplatin IC50 in presence of test compound for reversal of multi-drug resistance in human KVB cells at 10 uM measured after 72 hrs by MTT assay; assay type: functional, KBV
[24] = molecular target: T1, ATP-dependent translocase ABCB1; test: Thermal stabilization of P-gp in human KVB cells at 58 to 61 degreeC by CETSA assay; assay type: cell-based; conditions: kbv
[25] = Cytotoxicity against human KBV cells assessed as cell survival at 10 uM measured after 72 hrs incubation by MTT assay relative to control; assay type: functional; conditions: read-out: Activity
[26] = Cytotoxicity against human KBV cells assessed as cell survival at 5 uM measured after 72 hrs incubation by MTT assay relative to control; assay type: functional; conditions: read-out: Activity
[27] = Reversal fold, ratio of PTX IC50 to PTX IC50 in presence of test compound for reversal of multi-drug resistance in human KVB cells at 5 uM measured after 72 hrs by MTT; assay type: functional, KBV
[28] = tested on: KBV; test: Antimigratory activity against human KVB cells assessed as inhibition of cell migration at 50 nM and incubated for 24 hrs by scratch wound healing assay; assay type: functional, cell-based
[29] = tested on: KBV; test: Inhibition of colony formation of human KVB cells assessed as reduction in colonies at 2.5 uM measured after 48 hrs by crystal violet staining based analysis; assay type: functional, cell-based

T1 sequence (P08183 whole entry): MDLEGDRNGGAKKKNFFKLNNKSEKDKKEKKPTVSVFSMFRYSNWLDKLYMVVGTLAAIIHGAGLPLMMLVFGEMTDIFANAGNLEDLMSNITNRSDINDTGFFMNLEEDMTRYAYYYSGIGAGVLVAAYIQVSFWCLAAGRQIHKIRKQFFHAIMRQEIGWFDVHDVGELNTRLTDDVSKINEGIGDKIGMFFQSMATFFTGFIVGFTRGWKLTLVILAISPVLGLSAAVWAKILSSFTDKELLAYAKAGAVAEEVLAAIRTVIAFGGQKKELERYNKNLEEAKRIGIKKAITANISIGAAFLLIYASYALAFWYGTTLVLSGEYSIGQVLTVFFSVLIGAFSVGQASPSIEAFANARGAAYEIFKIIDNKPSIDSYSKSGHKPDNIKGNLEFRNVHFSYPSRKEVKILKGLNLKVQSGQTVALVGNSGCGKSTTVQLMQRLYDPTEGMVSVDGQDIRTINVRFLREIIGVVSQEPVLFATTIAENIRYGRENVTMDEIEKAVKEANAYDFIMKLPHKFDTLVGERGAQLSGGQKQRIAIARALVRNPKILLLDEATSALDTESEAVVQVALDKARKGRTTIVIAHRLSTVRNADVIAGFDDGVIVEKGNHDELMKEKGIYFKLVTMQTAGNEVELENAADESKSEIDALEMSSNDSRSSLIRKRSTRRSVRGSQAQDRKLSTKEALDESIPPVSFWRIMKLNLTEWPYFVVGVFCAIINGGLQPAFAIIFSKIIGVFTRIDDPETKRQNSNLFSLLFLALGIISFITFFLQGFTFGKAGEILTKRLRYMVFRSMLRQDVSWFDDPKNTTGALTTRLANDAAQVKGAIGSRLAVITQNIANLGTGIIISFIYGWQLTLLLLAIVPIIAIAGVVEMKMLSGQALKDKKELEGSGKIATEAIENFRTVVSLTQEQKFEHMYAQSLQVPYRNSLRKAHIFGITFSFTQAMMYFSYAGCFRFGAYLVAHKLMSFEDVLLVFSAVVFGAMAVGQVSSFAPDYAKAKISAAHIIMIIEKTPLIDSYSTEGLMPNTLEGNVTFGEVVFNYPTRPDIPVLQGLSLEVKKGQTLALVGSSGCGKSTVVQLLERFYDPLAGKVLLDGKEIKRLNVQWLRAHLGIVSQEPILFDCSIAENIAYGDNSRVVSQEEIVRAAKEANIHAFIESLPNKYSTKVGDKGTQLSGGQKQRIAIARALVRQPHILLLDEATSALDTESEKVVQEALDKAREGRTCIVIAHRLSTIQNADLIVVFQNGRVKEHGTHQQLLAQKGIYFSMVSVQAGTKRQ
Sequence of Multidrug resistance-associated protein 1 (P33527 whole entry): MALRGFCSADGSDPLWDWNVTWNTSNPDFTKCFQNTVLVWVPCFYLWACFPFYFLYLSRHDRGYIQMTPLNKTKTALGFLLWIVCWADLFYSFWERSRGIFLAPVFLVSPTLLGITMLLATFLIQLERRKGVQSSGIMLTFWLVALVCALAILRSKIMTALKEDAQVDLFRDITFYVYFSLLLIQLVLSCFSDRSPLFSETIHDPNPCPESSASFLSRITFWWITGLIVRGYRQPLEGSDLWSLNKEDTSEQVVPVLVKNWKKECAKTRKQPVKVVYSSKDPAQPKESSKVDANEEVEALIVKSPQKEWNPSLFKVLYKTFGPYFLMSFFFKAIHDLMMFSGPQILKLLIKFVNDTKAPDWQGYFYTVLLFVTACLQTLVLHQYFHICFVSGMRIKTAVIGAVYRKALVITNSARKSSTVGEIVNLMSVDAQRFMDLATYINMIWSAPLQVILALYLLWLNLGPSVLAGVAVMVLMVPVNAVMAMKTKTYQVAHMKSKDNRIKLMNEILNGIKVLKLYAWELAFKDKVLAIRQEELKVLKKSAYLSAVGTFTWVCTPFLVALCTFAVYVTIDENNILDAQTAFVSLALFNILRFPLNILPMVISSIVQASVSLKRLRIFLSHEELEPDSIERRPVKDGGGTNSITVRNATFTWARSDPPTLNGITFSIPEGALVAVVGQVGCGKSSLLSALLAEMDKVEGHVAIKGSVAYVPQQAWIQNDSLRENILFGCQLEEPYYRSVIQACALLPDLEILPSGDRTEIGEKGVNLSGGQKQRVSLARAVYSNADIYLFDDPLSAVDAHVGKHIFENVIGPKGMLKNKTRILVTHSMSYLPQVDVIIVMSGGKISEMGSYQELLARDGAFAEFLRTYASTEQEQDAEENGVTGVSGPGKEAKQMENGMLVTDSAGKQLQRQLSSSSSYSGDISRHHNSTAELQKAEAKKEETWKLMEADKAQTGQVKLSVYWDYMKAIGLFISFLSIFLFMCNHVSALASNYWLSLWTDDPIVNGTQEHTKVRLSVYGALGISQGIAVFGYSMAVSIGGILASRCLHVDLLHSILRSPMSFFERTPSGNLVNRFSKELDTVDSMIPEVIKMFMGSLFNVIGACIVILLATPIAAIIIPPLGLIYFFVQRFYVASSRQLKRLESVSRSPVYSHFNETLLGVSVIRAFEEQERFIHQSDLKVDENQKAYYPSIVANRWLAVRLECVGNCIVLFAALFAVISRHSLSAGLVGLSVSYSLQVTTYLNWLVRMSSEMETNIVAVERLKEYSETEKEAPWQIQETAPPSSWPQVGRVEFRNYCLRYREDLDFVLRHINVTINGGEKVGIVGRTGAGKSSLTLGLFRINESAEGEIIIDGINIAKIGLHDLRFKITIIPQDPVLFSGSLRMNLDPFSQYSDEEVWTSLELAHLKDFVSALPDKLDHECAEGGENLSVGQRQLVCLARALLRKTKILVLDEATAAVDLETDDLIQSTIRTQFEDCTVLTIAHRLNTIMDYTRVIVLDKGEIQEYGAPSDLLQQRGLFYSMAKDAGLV

COc1cc2c(cc1OC)CN(CCc1ccc(NC(=O)c3cc(OC)c(OC)cc3NC(=O)c3cnc4ccccc4c3)cc1)CC2
IC50 at 72 h ([1]; read-out: IC50): 8.03 µM | IC50 [2]: 8.66 µM | inhibition (INH) [3]: Active | Ratio [4]: 206.6 | IC50 at 72 h [5]: 40.3 µM

COc1ccc2c3c([nH]c2c1)[C@H](CC(C)C)N1C(=O)[C@H](CCC(=O)OC(C)(C)C)NC(=O)[C@@H]1C3
Ratio IC50 [6]: 3.2

CN(C)C(=O)CCSC(SCCC(=O)O)c1cccc(/C=C/c2ccc3ccc(Cl)cc3n2)c1 (stereo unspecified) [MK-571]
Ratio IC50 [7]: 6.4

CC(C)(C)OC(=O)N1CC(CC(=O)N[C@H]2CC[C@]3(C)[C@H]4C[C@@H](O)[C@@H]5[C@@H]([C@]6(C)CC[C@H](C(C)(C)O)O6)CC[C@@]5(C)[C@]4(C)CC[C@H]3C2(C)C)C1
IC50 at 72 h ([1]; read-out: IC50): 63.1 µM | Ratio IC50 [8]: 7.9 | Activity [9]: 36% | Ratio IC50 [6]: 1.1 | Ratio IC50 [10]: 1 | IC50 [2]: 44.9 µM | inhibition (INH) [11]: Dose-Dependent Effect | Activity [12]: Dose-Dependent Effect | Activity [13]: Not Active | Ratio IC50 [14]: 14.8 | inhibition (INH) [15]: Dose-Dependent Effect | Activity [16]: Active | Ratio IC50 [17]: 1 | Activity [18]: 23% | Activity [19]: Not Active | Activity [20]: Active | Activity [21]: inactive | Activity [22]: inactive | Ratio [4]: 211.8 | IC50 at 72 h [5]: > 100 µM | Ratio IC50 [23]: 1 | Activity [24]: Active | viability at 10 µM [25]: 92%

O=c1[nH]cc(F)c(=O)[nH]1 [FLUOROURACIL]
IC50 [2]: 829 µM

CC(C)(O)[C@H]1CC[C@@](C)([C@H]2CC[C@]3(C)[C@@H]2[C@H](O)C[C@@H]2[C@@]4(C)CC[C@H](NC(=O)[C@@H]5CCCCN5)C(C)(C)[C@@H]4CC[C@]23C)O1
viability at 5 µM [26]: 96% | Activity [9]: 41% | Activity [20]: Active | Ratio IC50 [27]: 116.7

COc1cccc2c1C(=O)c1c(O)c3c(c(O)c1C2=O)C[C@@](O)(C(=O)CO)C[C@@H]3O[C@H]1C[C@H](N)[C@H](O)[C@H](C)O1 [DOXORUBICIN HYDROCHLORIDE]
IC50 [2]: 8.19 µM

COc1ccc(CCN(C)CCCC(C#N)(c2ccc(OC)c(OC)c2)C(C)C)cc1OC (stereo unspecified)
IC50 at 72 h [1]: 53.4 µM | Activity [20]: Active | IC50 at 72 h [5]: > 100 µM

CC(=O)O[C@H]1C(=O)[C@@]2(C)[C@H]([C@H](OC(=O)c3ccccc3)[C@]3(O)C[C@H](OC(=O)[C@H](O)[C@@H](NC(=O)c4ccccc4)c4ccccc4)C(C)=C1C3(C)C)[C@]1(OC(C)=O)CO[C@@H]1C[C@@H]2O
Activity [28]: inactive | Activity [29]: inactive

Reference: ChEMBL document CHEMBL5500376, “Novel pyxinol amide derivatives bearing an aliphatic heterocycle as P-glycoprotein modulators for overcoming multidrug resistance” (Eur J Med Chem, 2024)
